# In patent publication US8709405B2, “Cancer vaccines containing epitopes of oncofetal antigen” (South Alabama Medical Science Foundation, priority 2002, dated 2014):
# Columns and labels:
# Format in all cases: cell-based, BALB/c mouse
# CD8 T cell clone H5 (Ts) = experiment: BUdR incorporation ELISA proliferation assay, Ts clone H5; details: Table 4
# Experimental: (§1) The epitopes recognized by 15 iLRP-reactive T cell clones derived from either naive BALB/c mice, BALB/c mice bearing MCA1315 fibrosarcoma tumors, or from BALB/c mice immunized with either 1 or 10 μg of recombinant murine iLRP were determined by testing the proliferation of those clones to overlapping peptides spanning the region of the iLRP molecule recognized by each clone in the presence of IL-2, as a growth factor for T cells and irradiated, T cell-depleted, syngeneic spleen cells as antigen-presenting cells. Proliferation was measured through ELISA determination of 5-bromodeoxyuridine incorporation during culture.
# (§2) More specifically, the epitope-specificity of the iLRP-specific Th1, Tc, and Ts clones was determined using a modification of the 5′-bromodeoxyuridine (BudR) incorporation ELISA technique described in Rohrer, J. W., A. L. Barsoum, D. L. Dyess, J. A. Tucker, and J. H. Coggin, Jr. 1999. Human breast carcinoma patients develop clonable oncofetal antigen-specific effector and regulatory T lymphocytes. J. Immunol. 162:6880, using the Biotrak BUdR incorporation assay (Amersham, Arlington Heights, Ill.). […] When the required color density was reached, the reaction was stopped by adding 25 μl of 1M sulfuric acid to each well and the plate read on a microELISA reader at 450 nm. […]
# [1] = tested on: iLRP-specific T cell clone L1 (CD8 Ts); experiment: BUdR incorporation ELISA proliferation assay, Ts clone L1; details: Table 3; for BUdR Incorporation (A450) of iLRP-specific T cell clone L1 cells, Expt. 1 / BUdR Incorporation (A450) of iLRP-specific T cell clone L1 cells, Expt. 2: 100 ng/well stimulant with irradiated syngeneic spleen cells (APC), 48 h culture
# Experimental: as §1
# (§3) More specifically, the epitope-specificity of the iLRP-specific Th1, Tc, and Ts clones was determined using a modification of the 5′-bromodeoxyuridine (BudR) incorporation ELISA technique described in Rohrer, J. W., A. L. Barsoum, D. L. Dyess, J. A. Tucker, and J. H. Coggin, Jr. 1999. Human breast carcinoma patients develop clonable oncofetal antigen-specific effector and regulatory T lymphocytes. J. Immunol. 162:6880, using the Biotrak BUdR incorporation assay (Amersham, Arlington Heights, Ill.). Briefly, at the time of restimulation of the clones, a portion of the cloned T cells were assayed for proliferation to antigen-presenting cells (APC) and various iLRP peptides. The assay was performed with 10,000 viable cloned T cells/well plus […] irradiated syngeneic spleen cells (APC) plus 100 ng/well of intact iLRP/OFA protein or the various truncated iLRP/OFA proteins or the various iLRP/OFA peptides in Iscove's modified Dulbecco's medium (IMDM) containing 2 mM L-glutamine, 100 U/ml of penicillin G, 100 μg of streptomycin sulfate, and 10% fetal calf serum. The cells were cultured for a total of 48 hours. After 24 hours of culture 5′-bromodeoxyuridine was added to a final concentration of 10 μM/well. The cells were cultured for another 24 hours. At the end of the last 24 hours of incubation, the plates were centrifuged at 300×g for 10 min, and the labelling medium removed. The cells were then dried at 60° C. for 1 hour. The cells were fixed with an ethanol fixative provided in the Biotrak kit for 30 min at room temperature, fixative was removed, and the wells were coated with blocking buffer (1% protein in 50 mM Tris-HCl, 150 mM NaCl, pH 7.4) and incubated for 30 min at room temperature. The blocking buffer was removed, 100 μl of 1:100 diluted peroxidase-labelled anti-BUdR antibody was added to each well and the plates were incubated for 90 min at room temperature. The antibody solution was removed, and the wells washed three times with 300 μl/well of wash buffer. 200 μl of 3,3′, 5,5′-tetramethylbenzidine in […] DMSO was added to each well and the plate was covered and incubated at room temperature while oscillating gently for 5-30 min. When the required color density was reached, the reaction was stopped by adding 25 μl of 1M sulfuric acid to each well and the plate read on a microELISA reader at 450 nm.
# (§4) Each time the assay was done, clones were stimulated by APC and intact iLRP/OFA as a positive control. Cloned T cells were also cultured in the presence of only APC in IMDM or in the presence of APC and an iLRP/OFA peptide or truncated iLRP/OFA known not to stimulate the clones being tested. These served as negative controls. In wells where BUdR was incorporated (the iLRP/OFA stimulates proliferation of the T cells), the A450 was at least 10-fold and often approximately 50-fold higher than the negative controls. Because the Ts cells always presented with apparently low affinity T cell antigen receptors, their BUdR incorporation gave A450 values about 10 times higher than the negative controls (e.g., about 0.2 vs. 0.02), but about 5 times lower than the Th1 or Tc clones (e.g., usually about 0.9).
# Overlapping 12mer peptides of the first 25 amino acids of murine iLRP were produced. Thus, peptides 1-4 corresponded to amino acid residues 1-12, 5-16, 9-20 and 17-28 of murine iLRP. […]
# [2] = tested on: CD8 iLRP-specific T cell clone M11 (Ts); experiment: BUdR incorporation ELISA proliferation assay, Ts clone M11; details: Table 5
# Experimental: as §1, §2
# [3] = tested on: iLRP-specific T cell clone L4 (Tc); experiment: BUdR incorporation ELISA proliferation assay, Tc clone L4; details: for BudR Incorporation (A450), T cell clone L4 (Tc): Table 8, overlapping 12-mers of iLRP 136-166, 100 U/ml IL-2
# Experimental: as §1, §3
# as §4, with “0.9). […]” for “0.9).”
# [4] = tested on: iLRP-specific T cell clone H2 (Ts); experiment: BUdR incorporation ELISA proliferation assay, Ts clone H2; details: for BudR Incorporation (A450), T cell clone H2 (Ts): Table 8, overlapping 12-mers of iLRP 136-166, 100 U/ml IL-2
# Experimental: as §1, §3
# as §4, with “0.9). […]” for “0.9).”
# [5] = tested on: iLRP-specific T cell clone H4 (Ts); experiment: BUdR incorporation ELISA proliferation assay, Ts clone H4; details: for BudR Incorporation (A450), T cell clone H4 (Ts): Table 8, overlapping 12-mers of iLRP 136-166, 100 U/ml IL-2
# Experimental: as §1, §3
# as §4, with “0.9). […]” for “0.9).”
# [6] = tested on: iLRP-specific T cell clone H3 (Th1); experiment: BUdR incorporation ELISA proliferation assay, Th1 clone H3; details: for BudR Incorporation (A450), T cell clone H3 (Th1): Table 8, overlapping 12-mers of iLRP 136-166, 100 U/ml IL-2; for Response of Th1 clone H3 (in words): text on Table 8
# Experimental: as §1, §3
# as §4, with “0.9). […]” for “0.9).”
# [7] = tested on: iLRP-specific T cell clone L5 (Tc); experiment: BUdR incorporation ELISA proliferation assay, Tc clone L5; details: for BudR Incorporation (A450), T cell clone L5 (Tc): Table 8, overlapping 12-mers of iLRP 136-166, 100 U/ml IL-2; for Proliferative response of Tc clone L5 (in words): text on Table 8
# Experimental: as §1, §3
# as §4, with “0.9). […]” for “0.9).”
# [8] = tested on: iLRP-specific Th1, Tc, and Ts clones; experiment: BUdR incorporation proliferation assay, comparison across iLRP-specific T cell clone types; details: Table 14; type of T cell clone reactive with the 12-mer
# Experimental: as §1, §3, §4
# Determination of the portion of the truncated iLRP/OFA protein or peptide reacted to by a given clone was done by analysis of the proliferation pattern to the various truncated proteins or peptides. […]
# [9] = tested on: CD8 iLRP-specific T cell clone L6 (Tc); experiment: BUdR incorporation ELISA proliferation assay, Tc clone L6; details: Table 5
# Experimental: as §1
# More specifically, the epitope-specificity of the iLRP-specific Th1, Tc, and Ts clones was determined using a modification of the 5′-bromodeoxyuridine (BudR) incorporation ELISA technique described in Rohrer, J. W., A. L. Barsoum, D. L. Dyess, J. A. Tucker, and J. H. Coggin, Jr. 1999. Human breast carcinoma patients develop clonable oncofetal antigen-specific effector and regulatory T lymphocytes. J. Immunol. 162:6880, using the Biotrak BUdR incorporation assay (Amersham, Arlington Heights, Ill.). Briefly, at the time of restimulation of the clones, a portion of the cloned T cells were assayed for proliferation to antigen-presenting cells (APC) and various iLRP peptides. The assay was performed with 10,000 viable cloned T cells/well plus […] irradiated syngeneic spleen cells (APC) plus 100 ng/well of intact iLRP/OFA protein or the various truncated iLRP/OFA proteins or the various iLRP/OFA peptides in Iscove's modified Dulbecco's medium (IMDM) containing 2 mM L-glutamine, 100 U/ml of penicillin G, 100 μg of streptomycin sulfate, and 10% fetal calf serum. The cells were cultured for a total of 48 hours. After 24 hours of culture 5′-bromodeoxyuridine was added to a final concentration of 10 μM/well. The cells were cultured for another 24 hours. […] When the required color density was reached, the reaction was stopped by adding 25 μl of 1M sulfuric acid to each well and the plate read on a microELISA reader at 450 nm. […]
# CD8 T cell clone M3 (Tc) = experiment: BUdR incorporation ELISA proliferation assay, Tc clone M3; details: Table 4
# Experimental: as §1, §2
# Th1 clone H1 = experiment: BUdR incorporation ELISA proliferation assay, Th1 clone H1; details: Table 12
# Experimental: as §1, §2
Sequence,"BudR Incorporation (A450), T cell clone L4 (Tc) [3]","BudR Incorporation (A450), T cell clone H2 (Ts) [4]","BudR Incorporation (A450), T cell clone H4 (Ts) [5]","BudR Incorporation (A450), T cell clone H3 (Th1) [6]","BudR Incorporation (A450), T cell clone L5 (Tc) [7]",Reactive T cell clones [8],other results
QMEQYIYKRKSD [P3 (aa 33-44)],–,–,–,–,–,–,Proliferation of clone H5 (in words) (CD8 T cell clone H5 (Ts)): proliferated to iLRP peptides 3 and 4 equally well
MSGALDVLQMKE [Peptide 1],–,–,–,–,–,–,"BUdR Incorporation (A450) of iLRP-specific T cell clone L1 cells, Expt. 1 [1]: .018 A450; BUdR Incorporation (A450) of iLRP-specific T cell clone L1 cells, Expt. 2 [1]: .020 A450"
TPIAGRFTPGTF [P19 (aa 97-108)],–,–,–,–,–,–,Proliferation of clone M11 (in words) [2]: proliferated equally well
TIALCNTDSPLR [Peptide 31-3],.016 A450,.015 A450,.017 A450,.016 A450,.90 A450,Tc,Proliferative response of Tc clone L5 (in words) [7]: equal proliferative response
CNTDSPLRYVDI [Peptide 31-4],.023 A450,.016 A450,.016 A450,.81 A450,.89 A450,Tc & TH1,Response of Th1 clone H3 (in words) [6]: slightly lower response; Proliferative response of Tc clone L5 (in words) [7]: equal proliferative response
EASYVNLPTIAL [Peptide 31-1],.015 A450,.23 A450,.22 A450,.016 A450,.017 A450,Ts,Proliferation of Ts clone H2 (in words) ([4]; text on Table 8): proliferated equally; Proliferation of Ts clone H4 (in words) ([5]; text on Table 8): proliferated equally
QMKEEDVLKLLAA [Peptide 3],–,–,–,–,–,–,"Proliferation of clone L1 (in words) [1]: does react somewhat; BUdR Incorporation (A450) of iLRP-specific T cell clone L1 cells, Expt. 1 [1]: .09 A450; BUdR Incorporation (A450) of iLRP-specific T cell clone L1 cells, Expt. 2 [1]: .07 A450"
ISSRNTGQRAVL [P14 (aa 77-88)],–,–,–,–,–,–,Proliferation of clone L6 (in words) [9]: proliferated equally well
RTWEKLLLAARA [P8 (aa 53-64)],–,–,–,–,–,–,Proliferation of clone M3 (in words) (CD8 T cell clone M3 (Tc)): proliferated to iLRP peptides 7 and 8 equally well
SPLRYVDIAIPC [Peptide 31-5],.91 A450,.016 A450,.016 A450,.95 A450,.024 A450,Tc & TH1,Proliferation of Tc clone L4 (in words) ([3]; text on Table 8): proliferated to peptides 31-5 and 31-6 equally; Response of Th1 clone H3 (in words) [6]: strongest response
SAAPTAQATEWV [P30 (277-288)],–,–,–,–,–,–,Response of clone H1 (in words) (Th1 clone H1): responded best
